Assay results from patent US20260240820A1, “METHOD FOR CONTROLLING MEMBRANE POTENTIAL-DEPENDENT ION CHANNEL THROUGH TYPE I TASTE RECEPTORS (T1RS)” (ION CHAT RESEARCH CORPORATE, priority 2022, published 2026).
Entries after “also recorded” stand apart in the source; their conditions may differ. Where two headings read alike, the source gives them in different places.

Tests used:
[1] = test system: voltage-dependent potassium channel current of SH-SY5Y cells; assay: Voltage clamp recording of outward potassium current in SH-SY5Y cells; format: cell-based, human; settings: 5 mM
Source text: The inward current represents the transient peak observed immediately after stimulation, while the outward current measures the average value during the last 50 ms of rectangular pulse stimulation.

Kv1.2 = assay: Patch-clamp recording of Kv1.2 potassium current in HEK cells expressing Kv1.2; format: cell-based, human
Procedure: The effects of Aβ peptides or umami substances on sustained potassium currents (VGKC) in cardiac myocytes can be studied using HEK cells expressing VGKC (such as Kv1.2, Kv3.2, Kv3.3) as well as SH-SY5Y cells expressing endogenous T1R GPCRs. For instance, as shown in the implementation example in (FIG. 36B), Aβ peptides were applied to VGKC-expressing human cultured cells, and VGKC currents were recorded using ramp-like or rectangular voltage waveforms via the patch-clamp technique. This allowed measurement of the changes (inhibition) in VGKC currents caused by Aβ peptides. Similar inhibition studies on VGKC can be conducted using umami substance L-glutamate sodium (MSG) (FIG. 36A).
As shown in (FIG. 37), Aβ1-42 peptide, unlike Aβ25-35 targeting T1R3, interacts with T1R1 and inhibits VGSC currents (FIGS. 37D, E).

VGSC = assay: Patch-clamp recording of VGSC current, cell type not specified or several cell types (summary statements); format: cell-based, human
[2] = test system: VGSC of SH-SY5Y cells (Nav1.7, Nav1.2, Nav1.3); assay: Patch-clamp recording of VGSC current in differentiated SH-SY5Y cells; format: cell-based, human; settings: 5 mM
HEK Nav1.5 cells = assay: GFP-Tubulin / GFP-Actin cytoskeleton observation in HEK Nav1.5 cells; format: cell-based, human; settings: MSG 5 mM
Source text: To observe the impact of cinacalcet and Aβ1-42 peptide on microfilament (actin) fiber structures, we labeled cells with GFP-Actin (FIG. 34). […] This experimental approach, using GFP-Tubulin, GFP-Actin, or other fluorescent proteins to label microtubules and microfilaments, can be used to screen compounds that regulate the activity of ion channels and neuronal function-controlling proteins. Additionally, simultaneous labeling of tubulin and actin can be achieved using fluorescent antibodies or phalloidin after cell fixation.

[3] = test system: Nav1.5 in T1R1-silenced HEK cells; assay: VGSC current in HEK Nav1.5 cells with silenced T1R1; format: cell-based, human; settings: 5 mM for MSG2.5
Nav1.5 = assay: Patch-clamp (voltage clamp) recording of VGSC current in HEK cells stably expressing Nav1.5

With `N[C@@H](CCC(=O)O)C(=O)[O-].[Na+]` [MSG, monosodium glutamate] the “Effect on outward potassium current” value [1] was “reduces the voltage-dependent potassium channel current; also recorded: decrease in outward currents”, the “Effect on voltage gated K+ channel (Kv1.2) current” value (Kv1.2) was “Inhibition of Voltage gated” and the “Effect on VGSC inactivation” value (VGSC) was “delays the inactivation of VGSC”. The “Effects on VGSCs” value (VGSC) was “Transient enhancement of VGSC; also recorded: Left shift of the I-V curve”, the “VGSC I-V curve” value (VGSC; 5 mM) was 5 mM MSG shifts the VGSC I-V curve to a more hyperpolarized direction and the “Delay of VGSC inactivation” value (VGSC; 10 mM) was “This delaying effect even more evident at 10 mM MSG”. The “Inactivation curve of VGSC shifted by dichlorprop” value (VGSC; VGSC inhibited by more than 80% by dichlorprop) was “partially recovered”, the “Suppression / leftward S-S shift of VGSC caused by artificial sweeteners” value (VGSC; cells pre-treated with aspartame or saccharin) was “partially reversed” and the “Effects on VGSCs” value (VGSC; listed as L-Glu (MSG)) was “Delay in VGSC inactivation”. For the same compound, the “Inactivation of VGSC current” value [2] was “delayed; also recorded: The inactivation speed of VGSC slows in 2 out of 3 SH-SY5Y cells”, the “Microtubule fibrous structure (GFP-Tubulin)” value (HEK Nav1.5 cells) was “disappearance of microtubule-like structures; also recorded: microtubule structure disappeared” and the “Effect on VGSC currents in T1R1-silenced cells” value [3] was “MSG had no effect on VGSC enhancement in T1R1 silenced cells”. For the same compound, the “Inactivation process of transient VGSC current” value (Nav1.5; 5 mM) was “significantly delayed; also recorded: This delay in inactivation speed more pronounced in Nav1.5 cells”, the “VGSC current suppressed by TBB” value (Nav1.5; 10 mM, after CK2 inhibitor TBB) was “partially recovered from TBB suppression” and the “S-S curve shifted by TBB” value (Nav1.5; after TBB) was “partially reversed the leftward shift caused by TBB”.
